{"source": "patent US7790752B2", "about": "“Indol-3-yl-carbonyl-azaspiro derivatives” (Hoffmann-La Roche Inc., priority 2005, dated 2010)"}
{"biological_target": "T1, human V1a receptor (Homo sapiens, UniProt P37288)", "T1 construct": "expressed in transfected cells; host or cells: HEK293 cells, transiently transfected; membrane preparation", "T1 sequence (P37288 whole entry)": "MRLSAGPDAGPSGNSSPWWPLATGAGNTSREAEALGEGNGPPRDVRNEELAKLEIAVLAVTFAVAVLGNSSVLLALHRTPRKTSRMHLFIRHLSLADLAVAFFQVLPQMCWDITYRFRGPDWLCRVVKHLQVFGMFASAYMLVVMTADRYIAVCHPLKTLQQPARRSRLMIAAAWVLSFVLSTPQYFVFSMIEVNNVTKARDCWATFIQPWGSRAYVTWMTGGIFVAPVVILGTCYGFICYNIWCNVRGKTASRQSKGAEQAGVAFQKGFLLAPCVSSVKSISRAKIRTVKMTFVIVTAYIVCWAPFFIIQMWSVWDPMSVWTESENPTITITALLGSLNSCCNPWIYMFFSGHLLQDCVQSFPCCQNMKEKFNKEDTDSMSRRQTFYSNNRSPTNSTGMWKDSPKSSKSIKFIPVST", "experiment": "human V1a receptor binding (3H-Vasopressin SPA, HEK293 membranes)", "settings": "displacement of 3H-Vasopressin; membranes of HEK293 cells transiently transfected with human V1a receptor; Ki from IC50 by Cheng-Prussoff equation", "method": "The human V1a receptor was cloned by RT-PCR from total human liver RNA. The coding sequence was subcloned in an expression vector after sequencing to confirm the identity of the amplified sequence. […] Cell membranes were prepared from HEK293 cells transiently transfected with the expression vector and grown in 20 liter fermenters with the following protocol.\n50 g of cells are resuspended in 30 ml freshly prepared ice cold Lysis buffer (50 mM HEPES, 1 mM EDTA, 10 mM MgCl2 adjusted to pH=7.4+complete cocktail of protease inhibitor (Roche Diagnostics)). Homogenized with Polytron for 1 min and sonicated on ice for 2×2 minutes at 80% intensity (Vibracell sonicator). The preparation is centrifuged 20 min at 500 g at 4° C., the pellet is discarded and the supernatant centrifuged 1 hour at 43,000 g at 4° C. (19,000 rpm). The pellet is resuspended in 12.5 ml Lysis buffer+12.5 ml Sucrose 20% and homogenized using a Polytron for 1-2 min. The protein concentration is determined by the Bradford method, and aliquots are stored at −80° C. until use. For binding studies 60 mg Yttrium silicate SPA beads (Amersham) are mixed with an aliquot of membrane in binding buffer (50 mM Tris, 120 mM NaCl, 5 mM KCl, 2 mM CaCl2, 10 mM MgCl2) for 15 minutes with mixing. 50 ul of bead/membrane mixture is then added to each well of a 96 well plate, followed by 50 ul of 4 nM 3H-Vasopressin (American Radiolabeled Chemicals). For total binding measurement 100 ul of binding buffer are added to the respective wells, for non-specific binding 100 ul of […] cold vasopressin and for compound testing 100 ul of a serial dilution of each compound in 2% DMSO. The plate is incubated 1 h at room temperature, centrifuged 1 min at 1000 g and counted on a Packard Top-Count. Non-specific binding counts are subtracted from each well, and data is normalized to the maximum specific binding set at 100%. To calculate an IC 50 the curve is fitted using a non-linear regression model (XLfit), and the Ki is calculated using the Cheng-Prussoff equation.", "units": {"Ki": "nM"}}
{"smiles": "Cc1c(C(=O)N2CCC3(CC2)C(=O)N(C)CN3c2ccccc2)c2ccccc2n1Cc1ccccc1", "note": "[Example 1, 8-[(1-Benzyl-2-methyl-1H-indol-3-yl)carbonyl]-3-methyl-1-phenyl-1,3,8-triazaspiro[4.5]decan-4-one]", "Ki": 368}
{"smiles": "Cc1c(C(=O)N2CCC3(CC2)C(=O)NCN3c2ccccc2)c2ccccc2n1Cc1ccccc1", "note": "[Example 2, 8-(1-Benzyl-2-methyl-1H-indole-3-carbonyl)-1-phenyl-1,3,8-triaza-spiro[4.5]decan-4-one]", "Ki": 367}
{"smiles": "CN(C)CCn1cc(C(=O)N2CCC3(CC2)C(=O)N(C)CN3c2ccccc2)c2ccc(Cl)cc21", "note": "[Example 7, 8-({6-Chloro-1-[2-(dimethylamino)ethyl]-1H-indol-3-yl}carbonyl)-3-methyl-1-phenyl-1,3,8-triazaspiro[4.5]decan-4-one]", "Ki": 156}
{"smiles": "CNC(=O)Cn1cc(C(=O)N2CCC3(CC2)C(=O)N(C)CN3c2ccccc2)c2ccc(Cl)cc21", "note": "[Example 8, 2-{6-Chloro-3-[(3-methyl-4-oxo-1-phenyl-1,3,8-triazaspiro[4.5]dec-8-yl)carbonyl]-1H-indol-1-yl}-N-methylacetamide]", "Ki": 37}
{"smiles": "CN1CN(c2ccccc2)C2(CCN(C(=O)c3cn(Cc4cc(F)cc(F)c4)c4cc(Cl)ccc34)CC2)C1=O", "note": "[Example 9, 8-{[6-Chloro-1-(3,5-difluorobenzyl)-1H-indol-3-yl]carbonyl}-3-methyl-1-phenyl-1,3,8-triazaspiro[4.5]decan-4-one]", "Ki": 21}
{"smiles": "CN(C)C(=O)Cn1cc(C(=O)N2CCC3(CC2)C(=O)N(C)CN3c2ccccc2)c2ccc(Cl)cc21", "note": "[Example 10, 2-{6-Chloro-3-[(3-methyl-4-oxo-1-phenyl-1,3,8-triazaspiro[4.5]dec-8-yl)carbonyl]-1H-indol-1-yl}-N,N-dimethylacetamide]", "Ki": 14}
{"smiles": "CN1CN(c2ccccc2)C2(CCN(C(=O)c3cn(Cc4ccccc4)c4cc(Cl)ccc34)CC2)C1=O", "note": "[Example 11, 8-[(1-Benzyl-6-chloro-1H-indol-3-yl)carbonyl]-3-methyl-1-phenyl-1,3,8-triazaspiro[4.5]decan-4-one]", "Ki": 45}
{"smiles": "CN1CN(c2ccccc2)C2(CCN(C(=O)c3cn(Cc4cccc(Cl)c4F)c4cc(Cl)ccc34)CC2)C1=O", "note": "[Example 13, 8-{[6-Chloro-1-(3-chloro-2-fluorobenzyl)-1H-indol-3-yl]carbonyl}-3-methyl-1-phenyl-1,3,8-triazaspiro[4.5]decan-4-one]", "Ki": 73}
{"smiles": "CN(C)CCNC(=O)Cn1cc(C(=O)N2CCC3(CC2)C(=O)N(C)CN3c2ccccc2)c2ccc(Cl)cc21", "note": "[Example 14, 2-{6-Chloro-3-[(3-methyl-4-oxo-1-phenyl-1,3,8-triazaspiro[4.5]dec-8-yl)carbonyl]-1H-indol-1-yl}-N-[2-(dimethylamino)ethyl]acetamide]", "Ki": 184}
{"smiles": "Cc1c(C(=O)N2CCC3(CC2)OCCO3)c2ccccc2n1Cc1ccccc1", "note": "[Example 15, (1-Benzyl-2-methyl-1H-indol-3-yl)-(1,4-dioxa-8-aza-spiro[4.5]dec-8-yl)-methanone]", "Ki": 424}
{"smiles": "O=C(c1c[nH]c2cc(Cl)ccc12)N1CCC2(CC1)OCCO2", "note": "[Example 16, 8-[(6-Chloro-1H-indol-3-yl)carbonyl]-1,4-dioxa-8-azaspiro[4.5]decane]", "Ki": 284}
